Experiment: Discoloration on storage: rate of increase in ΔE*ab (color difference meter)
Type: physicochemical
Details: stored 4 days at 60° C. under protection from light; FIG. 4-8
Experimental: 20 ml aliquots of the compositions of the examples and comparative examples were filled into a glass bottle followed by determination of the initial ΔE*ab(0) value with a color difference meter (Spectrophotometer Model CM-5, Konica Minolta). At this time, purified water was used for the reference color. ΔE*ab(0) values are represented by the equation indicated below and used as an indicator to represent the degree of coloring of the compositions of the examples and comparative examples. ΔE*ab={(ΔL*)^2+(Δa*)^2+(Δb*)^2}^1/2 [Equation 1]
The L* value (ΔL*) is a value relating to lightness, the a* value (Δa*) is a value relating to red/green opponent colors in both directions, and the b* value (Δb*) is a value relating to blue/yellow opponent colors in both directions. The compositions of the aforementioned examples and comparative examples were each stored (under protection from light) at 40° C., 50° C. and 60° C. and then taken out after 4 days followed by determination of the ΔE*ab(4) value with the aforementioned color difference meter.
The rate of increase in the ΔE*ab values attributable to being stored for 4 days at the aforementioned temperatures was determined using the equation indicated below. The term “(D65)” in the equation indicates the use of Illuminant D65. Rate of increase in ΔE*ab(D65)=ΔE*ab(65)(4)/[…]

## O=C1O[C@H]([C@@H](O)CO)C(O)=C1O[C@H]1O[C@H](CO)[C@@H](O)[C@H](O)[C@H]1O [ascorbyl glucoside]
  discoloration, rate of increase in ΔE*ab (in words): discoloration was determined to not occur

Reference: patent US10835572B2, “Composition for external application” (ROHTO PHARMACEUTICAL CO., LTD., priority 2014, dated 2020)
